Among the data in PubChem BioAssay (NCI) are TGI and GI50 values, retold here.

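Cells were grown in 96-well plates and exposed to each compound for 48 hours at five concentrations; endpoints were interpolated linearly between bracketing concentrations, or set to the highest concentration if not reached. The concentration for 50% growth inhibition is given as GI50. TGI denotes the concentration required for complete inhibition of growth.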 Some results are limits rather than exact numbers.

Some test systems named below: K-562 leukemia; RPMI-8226 leukemia; PC-3 prostate; UACC-257 melanoma; UO-31 renal; SK-MEL-5 melanoma; NCI-H226 lung; BT-549 breast; HCT-15 colon; HS 578T breast.
Common to all, as to experiment: inhibition of tumour cell growth, NCI panel, 48 h

Consider `Clc1ccc(Cc2nc3cc(Cl)c(Cl)cc3n2CC2CCCN3CCCCC23)cc1` (stereo not given), for which the TGI in the experiment with K-562 leukemia is more than 100 µM; in the experiment on RPMI-8226 leukemia it was more than 100 µM; in the experiment with PC-3 prostate, 21.1 µM; in the experiment on UACC-257 melanoma it was 13 µM; in the experiment on UO-31 renal, 1.6 µM; in the experiment on SK-MEL-5 melanoma, 23.3 µM. For the same compound, the TGI turned out to be 38 µM in the experiment with NCI-H226 lung, 26.1 µM in the experiment on BT-549 breast, 23.3 µM in the experiment with HCT-15 colon and 26.5 µM in the experiment with HS 578T breast.
`NC1CC(=O)c2c(I)sc(I)c21` (stereo not given): the TGI with K-562 leukemia is more than 100 µM; with RPMI-8226 leukemia, 29.9 µM; with PC-3 prostate, 42.8 µM; with UACC-257 melanoma it was 39.9 µM; with UO-31 renal, 35.5 µM; with SK-MEL-5 melanoma, more than 71.1 µM. Further, the TGI in the experiment on NCI-H226 lung worked out at 45.6 µM; with BT-549 breast it was 37.4 µM; in the experiment with HCT-15 colon, 45.8 µM; in the experiment with HS 578T breast it was 75 µM.
Regarding `CC(C)C(Sc1nc(N)nc2nc[nH]c12)C(=O)O` (stereo not given), the TGI in the experiment with K-562 leukemia, in the experiment on RPMI-8226 leukemia, in the experiment on PC-3 prostate, with UACC-257 melanoma, with UO-31 renal and in the experiment on SK-MEL-5 melanoma was more than 100 µM each time. Further, the TGI with NCI-H226 lung, in the experiment on BT-549 breast, in the experiment with HCT-15 colon and in the experiment with HS 578T breast was more than 100 µM each time.
On to `CCCNC(=O)c1cc(OC)c(OC)cc1NC(=O)C12CC3CC(CC(C3)C1)C2`, for which the TGI is more than 100 µM in the experiment on K-562 leukemia; 92.7 µM with RPMI-8226 leukemia; 35.1 µM in the experiment on PC-3 prostate; 32.8 µM in the experiment with UACC-257 melanoma; 30.1 µM in the experiment on UO-31 renal; more than 100 µM in the experiment on SK-MEL-5 melanoma. Besides, the TGI was determined as 55 µM in the experiment on NCI-H226 lung, 31.9 µM in the experiment with BT-549 breast, 32.7 µM in the experiment with HCT-15 colon and 51.5 µM in the experiment with HS 578T breast.
As to `CCOC(=O)c1c(N2CCN(C)CC2)[nH]c(=O)c(C(c2c(Cl)cccc2Cl)c2c(O)c(C(=O)OCC)c(N3CCN(C)CC3)[nH]c2=O)c1O`, the TGI in the experiment on K-562 leukemia was 86.8 µM; in the experiment on RPMI-8226 leukemia it was more than 100 µM; in the experiment with PC-3 prostate, 47.5 µM; with UACC-257 melanoma, 38.9 µM; in the experiment on UO-31 renal, 39.1 µM; in the experiment on SK-MEL-5 melanoma it was 40.1 µM. The TGI in the experiment on NCI-H226 lung stood at 52.6 µM; with BT-549 breast, 40.8 µM; in the experiment on HCT-15 colon it was 97.7 µM; in the experiment with HS 578T breast, 75 µM.
Turning to `CC[C@@]1(O)C(=O)OCc2c1cc1n(c2=O)Cc2c-1nc1ccc(N)cc1c2CC[Si](C)(C)C`, the TGI in the experiment with K-562 leukemia is more than 38.2 µM; in the experiment with RPMI-8226 leukemia, 0.0841 µM; in the experiment on PC-3 prostate, 13.7 µM; in the experiment on UACC-257 melanoma it was 0.155 µM; in the experiment on UO-31 renal, less than 0.0173 µM; with SK-MEL-5 melanoma it was less than 0.0222 µM. Also, the TGI was less than 0.01 µM with NCI-H226 lung, 13.1 µM with BT-549 breast, 14.2 µM in the experiment on HCT-15 colon and 27.3 µM in the experiment with HS 578T breast.
On to `CCc1nnc2sc(-c3ccc(-c4ccccc4[N+](=O)[O-])o3)nn12`, for which the TGI with K-562 leukemia was more than 100 µM; in the experiment with RPMI-8226 leukemia it was more than 100 µM; in the experiment on PC-3 prostate, more than 100 µM; with UACC-257 melanoma it was more than 100 µM; with UO-31 renal, more than 100 µM; in the experiment with SK-MEL-5 melanoma, 65.9 µM. Further, the TGI was 44 µM in the experiment on NCI-H226 lung, more than 100 µM in the experiment with BT-549 breast, more than 100 µM in the experiment on HCT-15 colon and more than 100 µM in the experiment with HS 578T breast.
For `O=C(O)c1ccccc1Sc1ccc(C=C2NC(=S)N(c3ccccc3)C2=O)s1`, the TGI in the experiment with K-562 leukemia, with RPMI-8226 leukemia, with PC-3 prostate, with UACC-257 melanoma, in the experiment with UO-31 renal and in the experiment on SK-MEL-5 melanoma was more than 100 µM throughout. In addition, the TGI in the experiment with NCI-H226 lung, with BT-549 breast, with HCT-15 colon and in the experiment on HS 578T breast was more than 100 µM throughout.
As to `O=C1N[C@@H]([C@H]2CC[C@H](Cl)CN2)C(=O)N[C@H]1[C@H]1CC[C@H](Cl)CN1`, the TGI in the experiment with K-562 leukemia is 227 µM; with RPMI-8226 leukemia, 75.1 µM; in the experiment with PC-3 prostate, 18 µM; with UACC-257 melanoma, 15.1 µM; in the experiment with UO-31 renal it was 6.42 µM; in the experiment with SK-MEL-5 melanoma it was 5.53 µM. Moreover, the TGI with NCI-H226 lung worked out at 11.6 µM; in the experiment with BT-549 breast it was 4.27 µM; in the experiment with HCT-15 colon, 57.5 µM; in the experiment on HS 578T breast, 91.7 µM.
As to `CSC(SC)=C(C#N)C(=O)Nc1ccc(Cl)cc1`, the TGI with K-562 leukemia is more than 100 µM; in the experiment on RPMI-8226 leukemia, more than 100 µM; in the experiment on PC-3 prostate, more than 100 µM; in the experiment on UACC-257 melanoma it was more than 100 µM; in the experiment on UO-31 renal it was 65.2 µM; in the experiment on SK-MEL-5 melanoma, more than 100 µM. The TGI was 85.9 µM in the experiment with NCI-H226 lung, more than 100 µM with BT-549 breast, more than 100 µM in the experiment on HCT-15 colon and more than 100 µM with HS 578T breast.
Regarding `O=C(c1ccccc1)c1nn(-c2cccc(Cl)c2)c2nc3nc(-c4ccccc4)cc(=O)n3nc12`, the GI50 with K-562 leukemia, in the experiment with RPMI-8226 leukemia, with PC-3 prostate, with UACC-257 melanoma, in the experiment with UO-31 renal and in the experiment on SK-MEL-5 melanoma was more than 25 µM throughout. Moreover, the GI50 with NCI-H226 lung, in the experiment with BT-549 breast, in the experiment on HCT-15 colon and with HS 578T breast was more than 25 µM throughout. For the same compound, the TGI in the experiment on K-562 leukemia, in the experiment with RPMI-8226 leukemia, with PC-3 prostate, in the experiment on UACC-257 melanoma, with UO-31 renal and in the experiment on SK-MEL-5 melanoma was more than 25 µM throughout. Besides, the TGI in the experiment on NCI-H226 lung, in the experiment with BT-549 breast, with HCT-15 colon and in the experiment with HS 578T breast was more than 25 µM throughout.
For `C=CCCCCCCCCCOC1C=CC(O)C(CO)O1` (stereo not given), the TGI in the experiment on K-562 leukemia is 53.3 µM; with RPMI-8226 leukemia, 50.4 µM; in the experiment with PC-3 prostate it was 86.4 µM; in the experiment on UACC-257 melanoma, 61.4 µM; with UO-31 renal, more than 100 µM; in the experiment on SK-MEL-5 melanoma, 48.1 µM. The TGI with NCI-H226 lung, in the experiment with BT-549 breast, in the experiment on HCT-15 colon and in the experiment on HS 578T breast was more than 100 µM each time.
